Measured values reported in patent US6436997B1, “Endogenous nitric oxide synthesis under conditions of low oxygen tension” (NitroMed, Inc., priority 1998, dated 2002).

Columns and labels:
[1] = test system: rabbit corpus cavernosum tissue; assay: Relaxation of phenylephrine-contracted corpus cavernosum tissue strips in organ chambers; assay type: cell-based; settings: for effect on N-hydroxy-L-arginine induced relaxation / effect on hydroxylamine induced relaxation: 20% O2; for effect on hydroxylamine induced relaxation: increasing hydroxylamine
Experimental: (§1) Rabbits were euthanized with an overdose of intravenous pentobarbital (60 mg/kg) and immediately exsanguinated. The entire penis was then removed and the corpus cavernosum tissue dissected free from the surrounding tunica albuginea and cut into strgips (3×3×7 mm). Corpus cavernosum tissues were maintained at 4-6° C. in M-400 solution (composition per 100 ml: mannitol, 4.19 g; KH2PO4, 0.205 g; K2HPO4.3H2O, 0.97 g; KCl, 0.112 g; NaHCO3, 0.084 g) until used. Corpus cavernosum tissues were typically used between 2 and 16 hrs from extraction.
Corpus cavernosum tissue was prepared as described in Example 1. For experimentation to measure relaxation of the tissue under various conditions, the corpus cavernosum tissues were then suspended in 10 ml organ chambers and bathed in a physiological salt solution, maintained at 37° C. and aerated with 5% CO2/95% air, pH 7.4. Each corpus cavernosum tissue strip was incrementally stretched to optimal isometric tension as determined by the maximal contractile response to 1 μM phenylephrine. After several exchanges of fresh physiological solution, the media was bubbled with gas mixtures containing 5% CO2, the indicated amount of oxygen (between 0% and 20%) and the remaining percentage was N2, for thirty minutes. Corpus cavernosum tissues were then contracted with a submaximal concentration of phenylephrine, and the contraction was allowed to reach a steady state level. Once a steady state of muscle tension was reached, the tissue was exposed to various concentrations of test compounds, and the relaxation responses were recorded. Relaxation responses were expressed as a percentage of total relaxation induced by a supramaximal addition of papaverine (total loss of tone) at the end of the experiment. The data in FIGS. 3-6 are expressed as mean±standard mean error

[2] = test system: rabbit corpus cavernosum tissue; assay: cGMP production (basal and acetylcholine stimulated) by corpus cavernosum tissue strips, ELISA; assay type: cell-based; settings: for cGMP concentration in acetylcholine stimulated tissue compared to basal values (ACh alone): 300 μM test drug + 30 μM ACh, under normoxia (20% O2) and hypoxia (0% O2), FIGS. 2A/2B; for basal cGMP production: normoxic (20% O2), vs vehicle control, FIG. 1
Experimental: as §1
Measurement of cyclic GMP in corpus cavernosal tissues was carried out as follows. Corpus cavernosal tissue strips were immersed in a 10 ml organ chamber containing physiological salt solution, maintained at 37° C. and aerated with 5% CO2/95% air, pH 7.4. Each strip was incrementally stretched to optimal isometric tension, as determined by maximal contractile responses to 1 μM phenylephrine ((R)-3-hydroxy-α-[(methylamino)methyl]-benzenemethanol hydrochloride). The physiological salt solution was then replaced with one bubbled with either 20% oxygen or 0% oxygen and the tissues were then given 0.5 μM phenylephrine, 30 μM Zaprinast and 100 μM IBMX (3-isobutyl-1-methylxanthine, […]) and incubated for 15 minutes; after which time each tissue was incubated with the test drug (or control drug) at various concentrations or with vehicle (the buffer in which the drugs are delivered). Tissues were incubated for another 5 minutes then immediately frozen in liquid nitrogen and stored at −80° C. until extraction for cyclic nucleotide assay. Tissues were extracted by homogenization in 6% trichloroacetic acid followed by ether (H2O-saturated) extraction and lyophilization. cGMP levels were determined by ELISA using a kit from Cayman Chemical Co. (Ann Arbor, Mich.).
Protein concentration in the corpus cavernosum tissue was determined using the Bio-Rad Protein Assay Kit microtiter plate assay procedure (Bio-Rad, Hercules, Calif.) with bovine serum albumin as the standard.

[3] = test system: left hindlimb of autoperfused non-diabetic or diabetic rats; assay: Vasoactive response (hindlimb perfusion pressure) of anesthetized autoperfused rats; assay type: in vivo, rat; settings: bolus infusion 0.1-10 mg/kg, pressure elevated by norepinephrine 2 μg/min/kg, FIGS. 12A/12B
Experimental: The left hindlimb of the anesthetized rats were perfused through the femoral artery at a constant rate of 3.3 ml/min/kg with blood from the carotid artery by means of a peristaltic pump. The vasoactive response induced by the bolus infusion of increasing concentrations of L-arginine or N-hydroxy-L-arginine into the left hindlimb of autoperfused non-diabetic or diabetic rats was determined by measuring the change in the perfusion pressure, which was previously elevated by a norepinephrine constant infusion (2 μg/min/kg).

[4] = test system: rat aortic segments; assay: Relaxation of norepinephrine-contracted rat aortic segments from non-diabetic and diabetic rats; assay type: cell-based; settings: for effect on acetylcholine induced relaxation of aorta segments / effect on acetylcholine induced relaxation of aortic rings: 10 μM test drug, 10 nM-10 μM ACh, normoxia; for effect on acetylcholine induced relaxation of aorta segments: diabetic rats, FIG. 10B; for effect on acetylcholine induced relaxation of aortic rings: non-diabetic rats, FIG. 10A
Experimental: Diabetes was induced in rats by the administration of a single injection of steptozotocin (60 mg/kg; i.p). Diabetic rats remained untreated for a total of 8 weeks. […] Rats were anesthetized with diethyl ether and exsanguinated. The thoracic aorta was then removed and the tissue dissected free from the surrounding periadventitial fat and connective tissue, taking precautions to avoid touching the luminal surface. The tissue was cut into 8 segments, each approximately 3-4 mm in length. Rat aortic segments were maintained at 4-6° C. Krebs-bicarbonate buffer (composition per millimolar: NaCl, 120; KCl, 5.6; MgCl2, 1.2; NaH2PO4, 1.2; dextrose, 10; NaHCO3, 25; CaCl2 2.5; pH 7.4) until used. Aortic segments were typically used between 2 and 16 hrs from extraction. […] Each aortic tissue strip was submitted to 1.5 g of resting tension. […] The aortic segments were then contracted with submaximal concentration of norepinephrine and the contraction as allowed to reach a steady state level. Once a steady state of muscle tension was reached, the tissue was exposed to various concentrations of test compounds and the relaxation responses were recorded. Relaxation responses were expressed as a percentage of total relaxation induced by a supramaximal addition of papaverine (total loss of tone) at the end of the experiment. In FIGS. 7-12, the data are expressed as mean±standard mean error.

[5] = estimated; cited from earlier work
[6] = 0.1 mM L-NNA or 0.02 mM ODQ, increasing N-hydroxy-L-arginine, FIG. 4A
[7] = 0.1 mM L-NNA or 0.02 mM ODQ, FIG. 4B

## O=c1onc2cnc3ccccc3n12 [ODQ, 1H-[1,2,4]oxadiazolo[4,3,a]quinoxalin-1-one]
[1]; [6]
  effect on N-hydroxy-L-arginine induced relaxation: significantly decreased the measured relaxation
[1]; [7]
  effect on hydroxylamine induced relaxation: significantly decreased the relaxation

## N=C(N)NCCC[C@H](N)C(=O)O [L-arginine]
[2]
  cGMP concentration in acetylcholine stimulated tissue compared to basal values (ACh alone): not effective to statistically increase the concentration of cGMP
[2]; 300 μM test drug
  basal cGMP production: stimulated cGMP production approximately equally
[3]
  change in hindlimb perfusion pressure, non-diabetic versus diabetic rats: the pressure change was greater for the non-diabetic rats compared to diabetic rats
[4]
  effect on acetylcholine induced relaxation of aorta segments: resulted in a decreased relaxation
  effect on acetylcholine induced relaxation of aortic rings: do not effect the relaxation of aortic rings
[1]; oxygen concentrations of 0%, 1%, 2% and 5% (data not shown)
  tissue relaxation at 1 mM: no measurable effect on tissue relaxation

## COC(=O)[C@@H](N)CCCNC(=N)N[N+](=O)[O-] [L-NAME, N^G-nitro-L-arginine methyl ester]
[4]; 10 μM inhibitor, normoxic, non-diabetic and diabetic rats, FIGS. 9A/9B
  effect on N-hydroxy-L-arginine induced relaxation of aorta segments: significantly decreased the measured relaxation

## NO [hydroxylamine]
[1]; 20% O2, 1 nM to 1000 μM, FIG. 4B
  relaxation of corpus cavernosum tissue by the substance itself: induces the relaxation of the tissue

## N=C(NCCC[C@H](N)C(=O)O)N[N+](=O)[O-] [L-NNA, N^G-nitro-L-arginine]
[1]; 0.1 mM L-NNA added together with 0.1 mM miconazole, FIG. 3
  effect on N-hydroxy-L-arginine induced relaxation: does decrease the effectiveness of N-hydroxy-L-arginine to relax the tissue
[1]; [6]
  effect on N-hydroxy-L-arginine induced relaxation: significantly decreased the measured relaxation
[1]; [7]
  effect on hydroxylamine induced relaxation: had no effect

## Clc1ccc(COC(Cn2ccnc2)c2ccc(Cl)cc2Cl)c(Cl)c1 (stereo not drawn) [miconazole]
[1]; 0.1 mM miconazole, increasing N-hydroxy-L-arginine 1-1000 μM, FIG. 3
  effect on N-hydroxy-L-arginine induced relaxation: does not significantly effect the relaxation of the tissues

## NC(=NCCC[C@H](N)C(=O)O)NO [N-hydroxy-L-arginine, N^G-hydroxy-L-arginine]
[2]; 30 μM test drug
  basal cGMP production: stimulated cGMP production approximately equally
[2]
  cGMP concentration in acetylcholine stimulated tissue compared to basal values (ACh alone): statistically significant increase in the concentration of cGMP
[2]; 300 μM test drug
  basal cGMP production: effective to stimulate a higher concentration of cGMP production
[3]
  change in hindlimb perfusion pressure, non-diabetic versus diabetic rats: no difference in the perfusion pressure
[4]; 1 μM, 95% O2, FIG. 8
  induced relaxation, diabetic versus non-diabetic aortic segments: more effective in inducing the relaxation of aortic segments obtained from diabetic rats
[4]
  effect on acetylcholine induced relaxation of aorta segments: increased the relaxation
  effect on acetylcholine induced relaxation of aortic rings: do not effect the relaxation of aortic rings
[4]; 95% O2, 100 nM-100 μM, non-diabetic and diabetic rats, FIGS. 7A/7B
  induced relaxation of aortic segments compared with L-arginine: more effective in inducing relaxation in both non-diabetic and diabetic rats
[1]; all oxygen concentrations (0%, 1%, 2%, 5%, 20%), FIG. 6
  tissue relaxation at 1 mM: significant relaxation of the tissue

## [N]=O [nitric oxide]
[5]
  half-life in biological tissues: less than one second
